From ChEMBL document CHEMBL3751705, “Synthesis and antituberculosis activity of indole-pyridine derived hydrazides, hydrazide-hydrazones, and thiosemicarbazones” (Bioorg Med Chem Lett, 2016)
In brackets after ≈: the same amount, converted by molar mass. Activity calls are given as the source filed them. The rule behind the calls is not given here.

Assays:
[1] = system: Mycobacterium tuberculosis; experiment: Antituberculosis activity against isoniazid-sensitive Mycobacterium tuberculosis H37Rv by microdilution method; type: functional
[2] = Selectivity index, ratio of IC50 for C57BL/6 mouse peritoneal macrophages to MIC for Mycobacterium tuberculosis H37Rv
[3] = Cytotoxicity against C57BL/6 mouse peritoneal macrophages assessed as cell viability by lactate dehydrogenase release assay; type: cell-based; settings: C57BL/6, Peritoneal macrophage cell

| SMILES | MIC [1] | Selectivity Index [2] | IC50 [3] [µg/mL] |
| --- | --- | --- | --- |
| CCOC(=O)c1[nH]c2ccc(C)cc2c1CNNC(=O)c1ccncc1 | 0.2 µg/mL (≈ 0.568 µM) |  |  |
| CC(=O)n1cc(NNC(=O)c2cc[n+]([O-])cc2)c2ccccc21 | 2 µg/mL (≈ 6.45 µM) |  |  |
| COc1ccc2[nH]c(C(=O)O)c(/C=N/NC(N)=S)c2c1 | > 10 µg/mL |  |  |
| CCOC(=O)c1[nH]c2ccc(Cl)cc2c1CNNC(=O)c1ccncc1 | 0.2 µg/mL (≈ 0.536 µM) |  |  |
| O=C(N/N=C\c1c[nH]c2ccccc12)c1cc[n+]([O-])cc1 | 1 µg/mL (≈ 3.57 µM) | 30 | 30 (≈ 107 µM) |
| CCOC(=O)c1[nH]c2ccccc2c1CN(NC(=O)c1ccncc1)C(=O)Nc1ccc(Cl)cc1 | inactive |  |  |
| CC(=O)n1cc(NNC(=O)c2ccncc2)c2ccccc21 | 0.2 µg/mL (≈ 0.68 µM) | 250 | 50 (≈ 170 µM) |
| CCOC(=O)c1[nH]c2ccc(C)cc2c1/C=N\NC(=O)c1ccncc1 | 0.05 µg/mL (≈ 0.143 µM) | 300 | 15 (≈ 42.8 µM) |
| CCOC(=O)c1[nH]c2ccccc2c1/C=N\NC(=O)c1cc[n+]([O-])cc1 | 2 µg/mL (≈ 5.68 µM) | 9 | 18 (≈ 51.1 µM) |
| CC(=O)n1cc(NNC(=O)c2ccc[n+]([O-])c2)c2ccccc21 | 2 µg/mL (≈ 6.45 µM) |  | 17 (≈ 54.8 µM) |
| NC(=S)N/N=C/c1c(C(=O)O)[nH]c2ccc(Cl)cc12 | 10 µg/mL (≈ 33.7 µM) |  |  |
| CCOC(=O)c1[nH]c2ccccc2c1CNNC(=O)C1CCNCC1.CS(=O)(=O)O | 20 µg/mL |  |  |
| CCOC(=O)c1[nH]c2ccccc2c1/C=N\NC(=O)c1ccncc1 | 0.15 µg/mL (≈ 0.446 µM) | 106.6 | 16 (≈ 47.6 µM) |
| CC(=O)n1cc(NNC(=O)c2cccnc2)c2ccccc21 | 20 µg/mL (≈ 68 µM) |  |  |
| NNC(=O)c1cc[n+]([O-])cc1 | 5.2 µg/mL (≈ 34 µM) | 11.5 | 60 (≈ 392 µM) |
| Cc1ccc2[nH]c(C(=O)O)c(/C=N/NC(N)=S)c2c1 | > 10 µg/mL |  |  |

| SMILES | MIC [1] | Selectivity Index [2] | IC50 [3] [µg/mL] |
| --- | --- | --- | --- |
| CCOC(=O)c1[nH]c2ccccc2c1CNNC(=O)c1cc[n+]([O-])cc1 | 2 µg/mL (≈ 5.64 µM) | 8 | 16 (≈ 45.2 µM) |
| O=C(NNCc1c[nH]c2ccccc12)c1ccncc1 | 0.1 µg/mL (≈ 0.376 µM) | 150 | 15 (≈ 56.3 µM) |
| CCOC(=O)c1[nH]c2ccc(Br)cc2c1CNNC(=O)c1ccncc1 | 10 µg/mL (≈ 24 µM) |  |  |
| O=C(N/N=C\c1c[nH]c2ccccc12)c1ccncc1 | 0.1 µg/mL (≈ 0.378 µM) | 400 | 40 (≈ 151 µM) |
| CC(=O)N1C/C(=N\NC(N)=S)c2ccccc21 | > 10 µg/mL |  |  |
| CCOC(=O)c1[nH]c2ccc(OC)cc2c1/C=N/NC(N)=S | > 10 µg/mL |  |  |
| CCOC(=O)c1[nH]c2ccccc2c1CNNC(=O)c1ccncc1 | 0.2 µg/mL (≈ 0.591 µM) |  |  |
| CCOC(=O)c1[nH]c2ccccc2c1CN(NC(=O)c1ccncc1)C(=O)c1ccncc1 | inactive |  |  |
| NNC(=O)c1cccnc1 [NICOTINIC ACID HYDRAZIDE] | 5 µg/mL (≈ 36.5 µM) |  |  |
| CC(=O)n1cc(N(NC(=O)c2ccncc2)C(=O)Nc2ccc(Cl)cc2)c2ccccc21 | inactive |  |  |
| CCOC(=O)c1[nH]c2ccc(C)cc2c1/C=N/NC(N)=S | 2 µg/mL (≈ 6.57 µM) |  |  |
| CCOC(=O)c1[nH]c2ccc(Cl)cc2c1/C=N\NC(=O)c1ccncc1 | 0.1 µg/mL (≈ 0.27 µM) |  |  |
| Cc1ccc2[nH]c(C(=O)O)c(/C=N\NC(=O)c3ccncc3)c2c1 | 0.1 µg/mL (≈ 0.31 µM) | 250 | 25 (≈ 77.6 µM) |
| NNC(=O)c1ccc[n+]([O-])c1 | > 10 µg/mL |  |  |
| NNC(=O)c1ccncc1 [ISONIAZID] | 0.06 µg/mL (≈ 0.438 µM) | >1666 | > 100 |
| NC(=S)N/N=C/c1c(C(=O)O)[nH]c2ccccc12 | > 10 µg/mL |  |  |
